Results reported in article PMC7822030, “Hybrid Inhibitors of DNA Gyrase A and B: Design, Synthesis and Evaluation” (Pharmaceutics, 2020).
Read-outs that look alike come from different tables or passages of the source.

Key:
E. coli BW25113 WT = experiment: MIC, E. coli BW25113 wild-type; type: cell-based; details: Escherichia coli, BW25113, read-out: Minimum Inhibitory Concentration E. coli BW# WT
Description: (§1) E. coli MG1655 originated from the laboratory collection of Dr. Csaba Pál. […] E. coli K-12 BW25113 single-gene knockout mutant lines ΔdapF, ΔmrcB, ΔsurA, ΔacrB and ΔtolC originated form the Keio collection copy owned by the laboratory of Dr. Csaba Pál.
(§2) Cation-adjusted Mueller Hinton II broth (MHBII) was used for growth of the bacteria under standard laboratory conditions, for antimicrobial susceptibility tests, and for selection of resistant variants. To prepare the MHBII broth, 22 g MHBII powder (containing 3 g beef extract, 17.5 g acid hydrolysate of casein, 1.5 g starch; Becton, Dickinson and Co., Franklin Lakes, NJ, USA) was dissolved in 1 L water. MHBII agar was prepared by addition of 14 g agar (Bacto; Molar Chemicals, Halásztelek, Hungary) to 1 L broth.
(§3) Minimum inhibitory concentrations (MICs) were determined using a standard serial broth microdilution technique, according to the Clinical and Laboratory Standards Institute guidelines. […] For Enterococcus sp., the cells were plated in BHI agar plates, and BHI broth was used to determine the MICs. […] Following the dilutions, each well was seeded with 5 × 10^4 bacterial cells. Each measurement was performed in three parallel replicates, and to avoid possible edge effects in the microwell plates, the outside rows (A, H) were filled with sterile medium. Following the inoculations, the plates were covered with the lids and wrapped in polyethylene plastic bags, to minimize evaporation but to allow O2 transfer. […] After incubation, the OD600 of each well was measured using a microplate reader (Synergy 2; Biotek, Winooski, VT, USA).

[1] = test system: E. cloacae spp. cloacae ATCC 13047; experiment: MIC broth microdilution, E. cloacae; type: cell-based, Enterobacter cloacae; details: for MIC: Enterobacter cloacae, ATCC13047, read-out: MIC E. cloacae spp. cloacae ATCC #
E. coli ATCC 25922 = experiment: MIC broth microdilution, E. coli ATCC 25922; type: cell-based; details: Escherichia coli, ATCC25922, read-out: MIC E. coli ATCC #
Description: as §1, §2, §3

K. pneumoniae ATCC 10031 = experiment: MIC broth microdilution, K. pneumoniae; type: cell-based; details: Klebsiella pneumoniae, ATCC10031, read-out: MIC K. pneumoniae ATCC #
Description: as §1, §2, §3

E. coli BW25113 ΔmrcB = type: cell-based, Escherichia coli
Description: as §1, §2, §3

E. coli BW25113 ΔdapF = type: cell-based, Escherichia coli
Description: as §1, §2, §3

E. coli BW25113 ΔacrB = type: cell-based, Escherichia coli
Description: as §1, §2, §3

E. coli BW25113 ΔsurA = type: cell-based, Escherichia coli
Description: as §1, §2, §3

E. coli BW25113 ΔtolC = type: cell-based, Escherichia coli; details: for MIC change, ΔtolC mutant versus wild-type E. coli BW25113: improvement of MIC in impaired efflux pump mutant
Description: as §1, §2, §3

E. coli MG1655 WT = experiment: MIC, E. coli MG1655 wild-type with PAβN; type: cell-based, Escherichia coli; details: for MIC: Escherichia coli, MG1655, read-out: Minimum Inhibitory Concentration E. coli MG# WT, 50 µg/mL PAβN, molar conversion in parentheses; for Minimum Inhibitory Concentration E. coli MG1655 WT: in the presence of 50 µg/mL PAβN
Description: as §1, §2
as §3, with “USA). […]” for “USA).”

[2] = test system: E. coli MG1655 GyrB R136C; experiment: microbe, parasite or virus in culture; type: cell-based, Escherichia coli; details: for MIC: Escherichia coli, MG1655, read-out: Minimum Inhibitory Concentration E. coli MG# GyrB R#C; for Minimum Inhibitory Concentration E. coli MG1655 GyrB R136C: in the presence of 50 µg/mL PAβN
Description: as §1, §2, §3
(§4) These mutated amino acids are the most common sites for target-based resistance in E. coli.

[3] = test system: E. coli MG1655 GyrA S83L, D87N ParC S80I, E84G; experiment: microbe, parasite or virus in culture; type: cell-based, Escherichia coli; details: for MIC: Escherichia coli, MG1655, read-out: Minimum Inhibitory Concentration E. coli MG# GyrA S83L, D87N ParC S80I, E84G; for Minimum Inhibitory Concentration E. coli MG1655 GyrA S83L, D87N ParC S80I, E84G: in the presence of 50 µg/mL PAβN
Description: as §1, §2, §3, §4

E. coli DNA gyrase = molecular target: T1, E. coli DNA gyrase (Escherichia coli, UniProt P0AES4+P0AES6); experiment: E. coli DNA gyrase supercoiling assay; type: biochemical
T1 construct: purchased Inspiralis, Norwich, UK
Experimental: (§5) The assay for determination of the IC50 values was performed according to previously reported procedures.
(§6) Briefly, inhibitory activities were determined using supercoiling (for DNA gyrase) and relaxation (for topoisomerase IV) assay kits (Inspiralis, Norwich, UK) on streptavidin-coated 96-well microtiter plates from Thermo Scientific Pierce (Thermo Fisher Scientific, Waltham, MA, USA). First, the plates were rehydrated with Wash Buffer and the biotinylated oligonucleotide TFO1 was then immobilized. After washing off the unbound oligonucleotide with Wash Buffer, the enzyme assay was performed. Into each well was added 24 µL of mixture containing 6 µL of Assay Buffer (containing ATP), 0.75 µL of relaxed (for E. coli DNA gyrase supercoiling assay) or supercoiled (for E. coli topoisomerase IV relaxation assay) pNO1 plasmid and 17.25 µL of water. Additionally, 3 µL of a solution of the inhibitor in 10% DMSO containing 0.008% Tween 20 and 3 µL of enzyme (1.5 U) in Dilution Buffer were also added to the wells. […] The TF buffer was added to terminate the enzymatic reaction and after additional incubation for 30 min at room temperature, which allowed for triplex formation (biotin–oligonucleotide–plasmid), the unbound plasmid was washed off using TF buffer. Promega Diamond dye in T10 buffer was then added. […] Here, the compounds were diluted using 2-fold serial dilution steps of the given compound. GraphPad Prism 6.0 software was used to calculate the IC50 values, which were determined in at least two independent measurements, and their means are given as the final result. […] Dose-response curves can be found in Supplementary Materials.

A. baumannii ATCC 17978 = experiment: MIC broth microdilution, A. baumannii; type: cell-based; details: Acinetobacter baumannii, ATCC17978, read-out: MIC A. baumannii ATCC #
Description: as §1, §2, §3

P. aeruginosa ATCC 27863 = experiment: MIC broth microdilution, P. aeruginosa; type: cell-based; details: Pseudomonas aeruginosa
Description: as §1, §2, §3

E. coli topoisomerase IV = molecular target: T2, E. coli topoisomerase IV (Escherichia coli, UniProt P0AFI2+P20083); experiment: E. coli topoisomerase IV relaxation assay; type: biochemical; details: for Inhibition of topoisomerase IV (in words): relaxation assay
T2 construct: purchased Inspiralis, Norwich, UK
Experimental: as §5, §6

[4] = molar conversion in parentheses
[5] = ATCC27863, 18 h, read-out: MIC P. aeruginosa ATCC #
[6] = ATCC27863, read-out: MIC P. aeruginosa ATCC #, molar conversion in parentheses, read-out: MIC P. aeruginosa ATCC 27863

| Compound | MIC (E. coli BW25113 WT; [4]) [µM] | MIC (E. coli BW25113 WT; wild-type) [µg/mL] | MIC ([1]; broth microdilution, 18 h) [µg/mL] | MIC [1, 4] [µM] | MIC (E. coli ATCC 25922; broth microdilution, 18 h) [µg/mL] | MIC (E. coli ATCC 25922; [4]) [µM] | MIC (K. pneumoniae ATCC 10031; broth microdilution, 18 h) [µg/mL] | MIC (K. pneumoniae ATCC 10031; [4]) [µM] | Minimum Inhibitory Concentration E. coli BW25113 ΔmrcB (E. coli BW25113 ΔmrcB; impaired cell-wall mutant) [µg/mL] | Minimum Inhibitory Concentration E. coli BW25113 ΔmrcB (E. coli BW25113 ΔmrcB; [4]) | Minimum Inhibitory Concentration E. coli BW25113 ΔdapF (E. coli BW25113 ΔdapF; impaired cell-wall mutant) [µg/mL] | Minimum Inhibitory Concentration E. coli BW25113 ΔdapF (E. coli BW25113 ΔdapF; [4]) | Minimum Inhibitory Concentration E. coli BW25113 ΔacrB (E. coli BW25113 ΔacrB; efflux pump mutant) [µg/mL] | Minimum Inhibitory Concentration E. coli BW25113 ΔacrB (E. coli BW25113 ΔacrB; [4]) | Minimum Inhibitory Concentration E. coli BW25113 ΔsurA (E. coli BW25113 ΔsurA; impaired cell-wall mutant) [µg/mL] | MIC (A. baumannii ATCC 17978; broth microdilution, 18 h) [µg/mL] | MIC (A. baumannii ATCC 17978; [4]) [µM] | MIC (P. aeruginosa ATCC 27863; [5]) [µg/mL] | MIC (P. aeruginosa ATCC 27863; [6]) [µM] | IC50 (E. coli topoisomerase IV) [nM] | further results |
| --- | --- | --- | --- | --- | --- | --- | --- | --- | --- | --- | --- | --- | --- | --- | --- | --- | --- | --- | --- | --- | --- |
| Cc1[nH]c(C(=O)Nc2nc3ccc(C(=O)NCCC(=O)N4CCN(c5cc6c(cc5F)c(=O)c(C(=O)O)cn6C5CC5)CC4)cc3s2)c(Cl)c1Cl [Compound 7b, 1-Cyclopropyl-7-(4-(3-(2-(3,4-dichloro-5-methyl-1H-pyrrole-2-carboxamido)benzo[d]thiazole-6-carboxamido)propanoyl)piperazin-1-yl)-6-fluoro-4-oxo-1,4-dihydroquinoline-3-carboxylic acid] | > 84.8 | > 64 | > 64 | > 84.8 | > 64 | > 84.8 | 8 | 10.6 | >64 | (>84.8 µM) | >64 | (>84.8 µM) | >64 | (>84.8 µM) | >64 | > 64 | > 84.8 | > 64 | > 84.8 | 3100 | Minimum Inhibitory Concentration E. coli BW25113 ΔsurA (E. coli BW25113 ΔsurA; [4]): (>84.8 µM); Minimum Inhibitory Concentration E. coli BW25113 ΔtolC (E. coli BW25113 ΔtolC; efflux pump mutant): 2 µg/mL; MIC change, ΔtolC mutant versus wild-type E. coli BW25113 (E. coli BW25113 ΔtolC): above 32 fold; Minimum Inhibitory Concentration E. coli BW25113 ΔtolC (E. coli BW25113 ΔtolC; [4]): (2.65 µM); MIC (E. coli MG1655 WT): 1.32 µM; Minimum Inhibitory Concentration E. coli MG1655 WT (E. coli MG1655 WT): 1 µg/mL; MIC [2]: 1.32 µM; Minimum Inhibitory Concentration E. coli MG1655 GyrB R136C [2]: 1 µg/mL; MIC [3]: 1.32 µM; Minimum Inhibitory Concentration E. coli MG1655 GyrA S83L, D87N ParC S80I, E84G [3]: 1 µg/mL; IC50 (E. coli DNA gyrase): 130 ± 10 nM; Inhibition of topoisomerase IV (in words) (E. coli topoisomerase IV): low micromolar |
| Cc1[nH]c(C(=O)Nc2nc3ccc(C(=O)O)cc3s2)c(Cl)c1Cl [Compound 1a, 2-(3,4-dichloro-5-methyl-1H-pyrrole-2-carboxamido)benzo[d]thiazole-6-carboxylic acid, reference compound] | – | – | > 64 | > 173 | 4 | 10.8 | 1 | 2.7 | – | – | – | – | – | – | – | 4 | 10.8 | 8 | 21.6 | 500 ± 280 | Antibacterial activity against E. cloacae (in words) [1]: inactive |
| Cc1[nH]c(C(=O)Nc2nc3c(OCc4ccccc4)cc(C(=O)O)cc3s2)c(Cl)c1Cl [Compound 1b, reference compound] | – | – | > 64 | > 134 | 16 | 33.6 | 4 | 8.4 | – | – | – | – | – | – | – | 2 | 4.2 | 2 | 4.2 | – | Antibacterial activity against E. cloacae (in words) [1]: inactive |
| Cc1[nH]c(C(=O)Nc2nc3ccc(C(=O)NCC(=O)N4CCN(c5cc6c(cc5F)c(=O)c(C(=O)O)cn6C5CC5)CC4)cc3s2)c(Cl)c1Cl [Compound 7a, 1-Cyclopropyl-7-(4-((2-(3,4-dichloro-5-methyl-1H-pyrrole-2-carboxamido)benzo[d]thiazole-6-carbonyl)glycyl)piperazin-1-yl)-6-fluoro-4-oxo-1,4-dihydroquinoline-3-carboxylic acid] | > 86.4 | > 64 | > 64 | > 86.4 | > 64 | > 86.4 | 4 | 5.4 | >64 | (>86.4 µM) | >64 | (>86.4 µM) | >64 | (>86.4 µM) | >64 | > 64 | > 86.4 | > 64 | > 86.4 | 2500 ± 1300 | Minimum Inhibitory Concentration E. coli BW25113 ΔsurA (E. coli BW25113 ΔsurA; [4]): (>86.4 µM); Minimum Inhibitory Concentration E. coli BW25113 ΔtolC (E. coli BW25113 ΔtolC; efflux pump mutant): 2 µg/mL; MIC change, ΔtolC mutant versus wild-type E. coli BW25113 (E. coli BW25113 ΔtolC): above 32 fold; Minimum Inhibitory Concentration E. coli BW25113 ΔtolC (E. coli BW25113 ΔtolC; [4]): (2.70 µM); MIC (E. coli MG1655 WT): 1.35 µM; Minimum Inhibitory Concentration E. coli MG1655 WT (E. coli MG1655 WT): 1 µg/mL; MIC [2]: 2.7 µM; Minimum Inhibitory Concentration E. coli MG1655 GyrB R136C [2]: 2 µg/mL; MIC [3]: 0.675 µM; Minimum Inhibitory Concentration E. coli MG1655 GyrA S83L, D87N ParC S80I, E84G [3]: 0.5 µg/mL; IC50 (E. coli DNA gyrase): 92 ± 10 nM; Inhibition of topoisomerase IV (in words) (E. coli topoisomerase IV): low micromolar |
